Measured values reported in US8173698B2, “Environmental sensitive fluorogenic compounds and their application for singlet oxygen and protein detection” (priority 2003, dated 2012).

Tests used:
[1] = Dependence of fluorescence emission spectra on solvent; assay type: physicochemical; conditions: 1 μM; MeOH and aqueous buffer (50 mM Tris pH 7.5) vs DMSO; excitation 488 nm
Experimental: Solutions of Compound 5 (1 μM) were prepared in dimethylsulfoxide (DMSO), methanol (MeOH) and aqueous buffer (50 mM Tris pH 7.5). 2 mL portions of these solutions were transferred to 10 mm×10 mm quartz cuvettes and fluorescence emission spectra were recorded on a Hitachi F-4500 spectrofluorometer using identical instrument detection sensitivity settings. Excitation was at 488 nm in all cases. For the DMSO and MeOH solutions, the spectra were re-scanned after addition of a small amount of 0.1 M NaOH to the 2 mL solution sample. Results are plotted in FIG. 3A and FIG. 3B. FIG. 3B represents an approximately 10-fold enlargement on the y-axis of FIG. 3A.

[2] = target: bovine serum albumin (BSA) (Bos taurus, UniProt P02769); conditions: excitation 488 nm
Experimental: A solution of Compound 5 (1 μM) was prepared in phosphate-buffered saline (PBS) (50 mM phosphate buffer, pH 7.4, 150 mM NaCl). A 2 mL portion of this solution was transferred to a 10 mm×10 mm quartz cuvette. The fluorescence emission spectrum of the solution was recorded on a Hitachi F-4500 spectrofluorometer using excitation at 488 nm. 1 μL of a 4.5 mM solution of bovine serum albumin (30% (w/v) BSA (Sigma Chemical Co., St. Louis, Mo., catalog number A-7284)) was then added to the 2 mL of aqueous dye solution. The emission scan measurement was then repeated. Further measurements were made as the amount of added BSA was increased up to 4.5 μM.

Sequence of bovine serum albumin (BSA) (P02769 25-607): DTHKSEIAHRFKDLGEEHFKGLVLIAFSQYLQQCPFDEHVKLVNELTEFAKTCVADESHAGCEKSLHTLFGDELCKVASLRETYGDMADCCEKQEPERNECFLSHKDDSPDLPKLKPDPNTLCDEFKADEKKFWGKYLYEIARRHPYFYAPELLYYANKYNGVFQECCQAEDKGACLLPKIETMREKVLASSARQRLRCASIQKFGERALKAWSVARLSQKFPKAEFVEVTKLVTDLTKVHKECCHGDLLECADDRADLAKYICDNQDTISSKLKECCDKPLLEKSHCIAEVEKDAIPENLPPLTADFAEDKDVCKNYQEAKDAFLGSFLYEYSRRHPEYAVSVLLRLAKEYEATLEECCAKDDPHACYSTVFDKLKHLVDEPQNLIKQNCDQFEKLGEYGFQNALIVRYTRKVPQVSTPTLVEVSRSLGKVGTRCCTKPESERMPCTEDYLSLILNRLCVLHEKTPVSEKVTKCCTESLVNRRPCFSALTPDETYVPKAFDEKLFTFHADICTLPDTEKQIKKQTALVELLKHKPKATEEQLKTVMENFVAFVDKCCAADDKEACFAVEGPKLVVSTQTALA

CC(=O)O.Cc1c2ccccc2c(-c2cc3c(-c4ccccc4C(=O)O)c4cc(Cl)c(O)cc4oc-3cc2=O)c2ccccc12 [Compound 5]
fluorescence of the dye in MeOH and aqueous buffer relative to that in DMSO [1]: extremely weak fluorescence
change of fluorescence upon binding to BSA ([2]; 1 μM dye in PBS pH 7.4, BSA 0-5 μM): fluorescence enhancement
fluorescence emission peak ([2]; in PBS with BSA): 540 nm
